The record followed here is publication PMC5761851, “Application of a phenotypic drug discovery strategy to identify biological and chemical starting points for inhibition of TSLP production in lung epithelial cells” (PLoS ONE, 2018).

What all share (assay): kinase selectivity panel
Format in all cases: biochemical

One assay deals with T1, MKK7β (Homo sapiens, UniProt O14733).
T1 construct: purchased Eurofins Pharma Discovery Services (KinaseProfiler; Cerep BioPrint panel)
T1 sequence (O14733 1-419): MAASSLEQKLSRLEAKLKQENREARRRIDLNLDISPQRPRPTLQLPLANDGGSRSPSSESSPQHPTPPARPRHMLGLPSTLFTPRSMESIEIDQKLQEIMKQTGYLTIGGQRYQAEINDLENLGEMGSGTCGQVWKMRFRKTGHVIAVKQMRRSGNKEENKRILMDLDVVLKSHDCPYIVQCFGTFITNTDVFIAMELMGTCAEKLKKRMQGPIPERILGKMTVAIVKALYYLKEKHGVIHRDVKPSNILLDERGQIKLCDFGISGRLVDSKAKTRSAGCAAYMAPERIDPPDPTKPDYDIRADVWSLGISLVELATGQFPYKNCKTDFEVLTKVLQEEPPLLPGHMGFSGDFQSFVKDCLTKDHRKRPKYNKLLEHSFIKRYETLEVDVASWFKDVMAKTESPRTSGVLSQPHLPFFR
The settings on record: read-out: percentage of control activity (POC), MKK7β. Summed up: (§1)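 IC50 values derive from 9 duplicate concentrations, run only for activities picked after an initial 10 μM duplicate screen across 125 representative kinases.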

For the next assay, the target named is T2, Fer (Homo sapiens, UniProt P16591).
T2 construct: purchased Eurofins Pharma Discovery Services (KinaseProfiler; Cerep BioPrint panel)
T2 sequence (P16591 whole entry): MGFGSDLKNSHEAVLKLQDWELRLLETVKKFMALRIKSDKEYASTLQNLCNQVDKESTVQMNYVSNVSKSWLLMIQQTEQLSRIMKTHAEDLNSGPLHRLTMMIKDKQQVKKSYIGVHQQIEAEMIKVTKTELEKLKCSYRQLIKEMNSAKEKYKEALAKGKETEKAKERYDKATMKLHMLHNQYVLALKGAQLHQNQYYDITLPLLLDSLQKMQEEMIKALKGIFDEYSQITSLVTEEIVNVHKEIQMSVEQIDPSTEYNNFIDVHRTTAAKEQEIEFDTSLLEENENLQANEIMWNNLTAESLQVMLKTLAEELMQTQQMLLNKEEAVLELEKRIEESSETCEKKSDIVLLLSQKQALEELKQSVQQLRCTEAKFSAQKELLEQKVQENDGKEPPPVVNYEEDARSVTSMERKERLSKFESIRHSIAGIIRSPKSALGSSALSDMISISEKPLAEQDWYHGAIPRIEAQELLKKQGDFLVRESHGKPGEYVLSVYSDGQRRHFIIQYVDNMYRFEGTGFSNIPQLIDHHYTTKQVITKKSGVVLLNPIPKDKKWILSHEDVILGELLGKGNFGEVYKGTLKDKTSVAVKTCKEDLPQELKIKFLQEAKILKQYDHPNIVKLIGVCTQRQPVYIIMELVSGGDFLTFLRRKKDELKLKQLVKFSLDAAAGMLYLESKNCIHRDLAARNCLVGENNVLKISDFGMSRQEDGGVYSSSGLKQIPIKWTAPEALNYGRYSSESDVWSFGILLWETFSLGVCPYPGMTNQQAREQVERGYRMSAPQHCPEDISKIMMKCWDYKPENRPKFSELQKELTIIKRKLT
Conditions: read-out: percentage of control activity (POC), Fer. In short, it runs like this:
as §1

In the next assay the target is T3, EphB4 (Homo sapiens, UniProt P54760).
T3 construct: purchased Eurofins Pharma Discovery Services (KinaseProfiler; Cerep BioPrint panel)
T3 sequence (P54760 16-987): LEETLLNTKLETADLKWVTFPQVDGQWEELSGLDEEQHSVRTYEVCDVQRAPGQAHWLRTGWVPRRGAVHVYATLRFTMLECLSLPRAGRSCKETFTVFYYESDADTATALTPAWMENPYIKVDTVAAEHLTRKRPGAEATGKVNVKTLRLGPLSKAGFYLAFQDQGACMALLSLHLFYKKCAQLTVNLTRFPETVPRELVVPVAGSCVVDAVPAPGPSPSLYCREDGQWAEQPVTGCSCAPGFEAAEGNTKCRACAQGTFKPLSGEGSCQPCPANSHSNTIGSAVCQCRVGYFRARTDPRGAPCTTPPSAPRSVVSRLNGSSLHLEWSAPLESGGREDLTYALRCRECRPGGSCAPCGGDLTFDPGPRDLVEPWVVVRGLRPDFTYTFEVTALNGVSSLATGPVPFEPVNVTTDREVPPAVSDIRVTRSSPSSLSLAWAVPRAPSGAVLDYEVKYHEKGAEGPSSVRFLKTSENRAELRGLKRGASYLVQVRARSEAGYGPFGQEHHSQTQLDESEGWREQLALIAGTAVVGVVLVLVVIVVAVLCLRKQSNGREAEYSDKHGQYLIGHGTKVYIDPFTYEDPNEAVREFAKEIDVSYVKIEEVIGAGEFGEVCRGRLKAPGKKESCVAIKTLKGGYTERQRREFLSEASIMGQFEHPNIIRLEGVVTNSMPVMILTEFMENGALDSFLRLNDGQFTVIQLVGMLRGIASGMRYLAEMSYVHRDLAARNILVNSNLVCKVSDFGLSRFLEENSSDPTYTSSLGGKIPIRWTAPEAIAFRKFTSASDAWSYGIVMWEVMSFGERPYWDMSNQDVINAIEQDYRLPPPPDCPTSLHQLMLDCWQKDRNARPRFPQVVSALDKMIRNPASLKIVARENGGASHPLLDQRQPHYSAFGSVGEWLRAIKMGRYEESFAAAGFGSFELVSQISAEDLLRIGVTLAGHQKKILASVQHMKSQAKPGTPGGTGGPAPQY
The settings on record: read-out: percentage of control activity (POC), EphB4. Summed up: as §1

The next assay has as its target T4, CaMKI (Homo sapiens, UniProt Q14012).
T4 construct: purchased Eurofins Pharma Discovery Services (KinaseProfiler; Cerep BioPrint panel)
The settings on record: read-out: percentage of control activity (POC), CaMKI. Summed up: as §1

For another assay, the target named is T5, cKit (Homo sapiens, UniProt P10721).
T5 construct: purchased Eurofins Pharma Discovery Services (KinaseProfiler; Cerep BioPrint panel)
T5 sequence (P10721 26-976): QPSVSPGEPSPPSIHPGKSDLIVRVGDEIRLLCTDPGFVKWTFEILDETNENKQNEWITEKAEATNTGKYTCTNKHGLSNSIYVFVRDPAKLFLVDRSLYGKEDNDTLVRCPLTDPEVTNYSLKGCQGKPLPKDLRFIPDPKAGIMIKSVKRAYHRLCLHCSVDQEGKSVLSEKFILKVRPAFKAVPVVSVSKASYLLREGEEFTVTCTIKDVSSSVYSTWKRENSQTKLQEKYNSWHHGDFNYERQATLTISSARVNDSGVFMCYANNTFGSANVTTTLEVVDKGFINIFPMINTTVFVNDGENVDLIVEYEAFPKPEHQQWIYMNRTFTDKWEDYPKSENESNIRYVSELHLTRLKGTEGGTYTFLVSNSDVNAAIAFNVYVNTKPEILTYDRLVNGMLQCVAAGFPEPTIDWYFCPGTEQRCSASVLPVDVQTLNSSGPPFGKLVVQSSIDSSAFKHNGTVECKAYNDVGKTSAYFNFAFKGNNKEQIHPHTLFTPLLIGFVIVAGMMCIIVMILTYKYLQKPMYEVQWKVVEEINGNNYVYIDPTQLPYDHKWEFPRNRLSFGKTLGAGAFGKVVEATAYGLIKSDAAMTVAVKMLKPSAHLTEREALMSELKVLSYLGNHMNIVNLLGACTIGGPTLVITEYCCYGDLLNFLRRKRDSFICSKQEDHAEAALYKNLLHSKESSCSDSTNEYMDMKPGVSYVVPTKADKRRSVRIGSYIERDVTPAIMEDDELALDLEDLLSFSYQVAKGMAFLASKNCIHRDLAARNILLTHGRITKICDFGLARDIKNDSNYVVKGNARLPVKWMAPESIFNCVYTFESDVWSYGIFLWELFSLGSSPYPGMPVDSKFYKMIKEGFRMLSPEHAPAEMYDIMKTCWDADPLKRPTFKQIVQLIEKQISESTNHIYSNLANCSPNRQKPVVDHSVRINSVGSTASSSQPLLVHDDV
Conditions: read-out: percentage of control activity (POC), cKit. In short, it runs like this: as §1

A further assay addresses T6, PI3K (p110d/p85a) (Homo sapiens, UniProt O00329).
T6 construct: Eurofins Pharma Discovery Services (contract assay service)
The settings on record: for remaining activity at 10 µM: read-out: percentage of control activity (POC), PI3K (p110d/p85a). Summed up: as §1

Another assay addresses T7, ZAP-70 (Homo sapiens, UniProt P43403).
T7 construct: purchased Eurofins Pharma Discovery Services (KinaseProfiler; Cerep BioPrint panel)
T7 sequence (P43403 1-619): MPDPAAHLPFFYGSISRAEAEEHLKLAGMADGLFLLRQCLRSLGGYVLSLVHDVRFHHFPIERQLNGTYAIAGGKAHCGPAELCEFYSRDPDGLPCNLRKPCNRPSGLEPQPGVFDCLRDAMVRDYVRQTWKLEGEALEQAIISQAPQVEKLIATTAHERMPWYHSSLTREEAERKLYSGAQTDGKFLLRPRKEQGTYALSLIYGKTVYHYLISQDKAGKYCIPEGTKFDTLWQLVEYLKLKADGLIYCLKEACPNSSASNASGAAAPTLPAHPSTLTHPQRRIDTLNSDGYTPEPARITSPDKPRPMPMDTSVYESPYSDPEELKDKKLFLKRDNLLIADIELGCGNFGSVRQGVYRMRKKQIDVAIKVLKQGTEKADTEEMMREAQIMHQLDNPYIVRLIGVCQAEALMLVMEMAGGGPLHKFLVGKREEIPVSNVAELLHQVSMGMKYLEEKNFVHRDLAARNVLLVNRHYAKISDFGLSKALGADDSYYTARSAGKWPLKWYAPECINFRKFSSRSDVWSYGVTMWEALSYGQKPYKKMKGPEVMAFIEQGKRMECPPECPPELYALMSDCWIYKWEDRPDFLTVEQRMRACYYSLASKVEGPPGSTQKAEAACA
Conditions: read-out: percentage of control activity (POC), ZAP-70. Summed up: as §1

A further assay concerns the target T8, FGFR4 (Homo sapiens, UniProt P22455).
T8 construct: purchased Eurofins Pharma Discovery Services (KinaseProfiler; Cerep BioPrint panel)
The settings on record: read-out: percentage of control activity (POC), FGFR4. In short, it runs like this:
as §1

SMILES strings stand for the structures.

T6 sequence (O00329 whole entry): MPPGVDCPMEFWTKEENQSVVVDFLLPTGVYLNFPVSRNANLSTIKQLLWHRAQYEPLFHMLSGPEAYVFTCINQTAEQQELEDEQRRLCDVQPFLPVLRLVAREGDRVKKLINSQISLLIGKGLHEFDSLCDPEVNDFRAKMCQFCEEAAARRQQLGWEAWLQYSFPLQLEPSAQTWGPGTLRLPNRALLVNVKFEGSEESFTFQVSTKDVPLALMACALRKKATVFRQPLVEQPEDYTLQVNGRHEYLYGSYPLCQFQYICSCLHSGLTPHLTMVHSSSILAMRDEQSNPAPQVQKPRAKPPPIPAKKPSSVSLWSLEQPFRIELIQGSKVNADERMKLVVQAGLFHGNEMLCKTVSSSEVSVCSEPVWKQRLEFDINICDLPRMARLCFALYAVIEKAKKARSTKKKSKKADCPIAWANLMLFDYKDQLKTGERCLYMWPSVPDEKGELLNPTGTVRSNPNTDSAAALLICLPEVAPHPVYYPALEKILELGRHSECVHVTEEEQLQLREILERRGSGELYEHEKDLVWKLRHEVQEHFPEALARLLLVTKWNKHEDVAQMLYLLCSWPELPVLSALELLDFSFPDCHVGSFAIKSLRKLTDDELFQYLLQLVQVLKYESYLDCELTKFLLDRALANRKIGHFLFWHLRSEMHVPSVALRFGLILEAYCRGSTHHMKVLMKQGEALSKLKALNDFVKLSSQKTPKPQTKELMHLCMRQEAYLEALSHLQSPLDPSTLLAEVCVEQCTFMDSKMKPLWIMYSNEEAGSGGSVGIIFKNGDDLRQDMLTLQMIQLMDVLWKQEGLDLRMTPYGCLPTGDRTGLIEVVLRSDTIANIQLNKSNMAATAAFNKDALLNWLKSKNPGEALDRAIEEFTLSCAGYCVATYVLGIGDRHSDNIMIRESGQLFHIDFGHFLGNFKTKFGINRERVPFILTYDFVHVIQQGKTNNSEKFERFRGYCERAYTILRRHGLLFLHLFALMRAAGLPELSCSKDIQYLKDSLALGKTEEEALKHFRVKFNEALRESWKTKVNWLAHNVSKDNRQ
T6 sequence (P27986 whole entry partner): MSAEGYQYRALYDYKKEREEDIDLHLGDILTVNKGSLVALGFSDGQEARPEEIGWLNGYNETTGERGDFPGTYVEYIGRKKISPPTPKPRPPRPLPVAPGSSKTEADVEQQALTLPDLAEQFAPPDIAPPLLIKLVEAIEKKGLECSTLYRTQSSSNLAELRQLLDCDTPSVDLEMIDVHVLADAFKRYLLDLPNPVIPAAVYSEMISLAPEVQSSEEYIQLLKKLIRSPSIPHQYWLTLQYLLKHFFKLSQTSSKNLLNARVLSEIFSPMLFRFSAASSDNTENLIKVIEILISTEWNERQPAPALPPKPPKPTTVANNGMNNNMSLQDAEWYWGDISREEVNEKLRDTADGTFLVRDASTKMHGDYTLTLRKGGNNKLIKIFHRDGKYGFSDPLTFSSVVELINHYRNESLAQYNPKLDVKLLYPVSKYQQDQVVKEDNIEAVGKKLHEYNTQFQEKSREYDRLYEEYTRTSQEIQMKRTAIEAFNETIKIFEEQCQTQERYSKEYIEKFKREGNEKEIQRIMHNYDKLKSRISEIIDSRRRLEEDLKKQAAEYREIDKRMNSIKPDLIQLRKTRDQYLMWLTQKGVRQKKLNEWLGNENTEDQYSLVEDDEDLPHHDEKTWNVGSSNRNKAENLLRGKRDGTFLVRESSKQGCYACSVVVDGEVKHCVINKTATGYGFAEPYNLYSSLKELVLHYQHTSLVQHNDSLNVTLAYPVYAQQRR
T8 sequence (P22455 22-802): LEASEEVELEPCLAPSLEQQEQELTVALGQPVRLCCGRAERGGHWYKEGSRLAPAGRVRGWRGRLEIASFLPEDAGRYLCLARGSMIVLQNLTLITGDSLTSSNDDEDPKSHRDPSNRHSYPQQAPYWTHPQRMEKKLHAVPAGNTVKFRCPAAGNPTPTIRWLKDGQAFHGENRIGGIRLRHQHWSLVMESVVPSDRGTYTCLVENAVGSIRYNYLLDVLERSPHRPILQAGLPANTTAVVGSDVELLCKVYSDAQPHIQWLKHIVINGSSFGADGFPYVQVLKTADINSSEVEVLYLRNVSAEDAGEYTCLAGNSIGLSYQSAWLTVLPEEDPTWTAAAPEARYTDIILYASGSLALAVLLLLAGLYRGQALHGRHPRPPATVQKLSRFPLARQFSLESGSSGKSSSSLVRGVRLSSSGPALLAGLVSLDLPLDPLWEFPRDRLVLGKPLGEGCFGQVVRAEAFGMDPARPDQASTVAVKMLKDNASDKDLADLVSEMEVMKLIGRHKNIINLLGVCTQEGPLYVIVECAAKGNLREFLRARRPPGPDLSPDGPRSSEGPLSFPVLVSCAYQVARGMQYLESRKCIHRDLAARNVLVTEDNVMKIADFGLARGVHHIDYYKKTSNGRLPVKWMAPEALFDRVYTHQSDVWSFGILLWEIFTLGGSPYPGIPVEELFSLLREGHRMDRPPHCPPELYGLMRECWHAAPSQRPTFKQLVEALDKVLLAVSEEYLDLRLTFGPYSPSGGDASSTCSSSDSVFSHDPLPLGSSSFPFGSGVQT
T4 sequence (Q14012 whole entry): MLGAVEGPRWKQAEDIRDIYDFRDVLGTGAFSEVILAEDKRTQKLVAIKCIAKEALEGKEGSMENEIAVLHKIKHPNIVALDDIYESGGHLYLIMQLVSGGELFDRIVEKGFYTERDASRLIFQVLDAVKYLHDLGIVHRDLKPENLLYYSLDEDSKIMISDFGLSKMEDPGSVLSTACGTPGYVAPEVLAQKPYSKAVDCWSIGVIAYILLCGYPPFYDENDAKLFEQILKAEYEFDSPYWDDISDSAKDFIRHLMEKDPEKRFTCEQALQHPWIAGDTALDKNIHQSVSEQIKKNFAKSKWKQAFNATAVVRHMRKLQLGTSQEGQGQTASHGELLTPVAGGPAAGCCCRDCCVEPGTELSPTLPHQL

For `CC(C)(C)N1CCC(c2cc(-c3ccc(F)cc3Cl)c3cc[n+]([O-])c(-c4c(Cl)cccc4Cl)c3n2)CC1` [compound 2], the remaining activity at 10 µM on MKK7β amounted to 110%; at Fer, 109%; on EphB4 it was 91%; on CaMKI, 94%; at cKit, 96%; at PI3K (p110d/p85a) (10 μM), 93%. Further, the remaining activity at 10 µM at ZAP-70 was determined as 105%; on FGFR4, 88%.
Turning to `Cc1ccc(C(=O)NCC2CC2)cc1-c1ccc2c(c1)NC(=O)C21CCCC1` [compound 3], the remaining activity at 10 µM on MKK7β came to 116%; at Fer, 102%; at EphB4 it was 105%; at CaMKI it was 95%; on cKit, 88%; on PI3K (p110d/p85a) (10 μM), 90%. Further, the remaining activity at 10 µM on ZAP-70 amounted to 97%; on FGFR4, 91%.
Consider `Cn1cc(-c2cccc(-c3nc(C(=O)NC4C5CC6CC4CC(O)(C6)C5)c(N)nc3N)c2)cn1` (stereo not drawn) [compound 4], for which the remaining activity at 10 µM was determined as 101% on MKK7β; 99% on Fer; 99% at EphB4; 87% at CaMKI; 102% at cKit; 21% on PI3K (p110d/p85a) (10 μM). Also, the figures for the remaining activity at 10 µM at ZAP-70 and on FGFR4 were 104% and 86%, respectively. Besides, the inhibition at 10 µM on PI3K (p110d/p85a) (10 μM, read-out: inhibition of PI3K (p110δ/p85α)) is 79%. Also, the IC50 on PI3K (p110d/p85a) (biochemical dose response, duplicate, read-out: Inhibition of indicated activity (IC50, μM): PI3K (p110δ/p85α)) worked out at 0.233 µM.
For `CS(=O)(=O)N1CCN(c2ccc(Nc3ncc(C(N)=O)c(NC4CC4)n3)cc2)CC1` [compound 5], the remaining activity at 10 µM on MKK7β is 7%; on Fer it was 14%; on EphB4, 36%; on CaMKI, 28%; at cKit, 1%; on PI3K (p110d/p85a) (10 μM) it was 90%. For the same compound, the results for the remaining activity at 10 µM at ZAP-70 and at FGFR4 were 53% and 73%, respectively.
On to `COc1c(NC(=O)c2ccc(C)c(-c3nnc4c(NCC(C)(C)C)nccn34)c2)cc(C(C)(C)C)cc1NS(C)(=O)=O` [compound 7, reference compound], for which the remaining activity at 10 µM on MKK7β was found to be 112%; at Fer it was 105%; at EphB4, 92%; on CaMKI it was 108%; at cKit, 92%; on PI3K (p110d/p85a) (10 μM), 90%. For the same compound, the remaining activity at 10 µM at ZAP-70 worked out at 104%; on FGFR4, 89%.
